How the values were obtained:
Assay type in all cases: biochemical
[1] = molecular target: T1, Lck (Homo sapiens, UniProt P06239); test: Kinase inhibition assay (33P transfer), Lck; conditions: Table 3; for IC50: read-out: Lck-1
T1 construct: Kinases are expressed as either kinase domains or full length constructs; made in house
Method in brief: (§1)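 Filterless plate radiometric format: immobilized poly(Glu,Tyr) 4:1 or poly(Arg,Ser) 3:1, 33P-labelled ATP, tagged recombinant kinase (some with regulatory partners). Incorporated label counted after phosphoric acid wash.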

[2] = molecular target: T2, Zap-70 (Homo sapiens, UniProt P43403); test: Kinase inhibition assay (33P transfer), Zap-70; conditions: Table 3; for IC50: read-out: Zap-1
T2 construct: Kinases are expressed as either kinase domains or full length constructs; made in house
T2 sequence (P43403 1-619): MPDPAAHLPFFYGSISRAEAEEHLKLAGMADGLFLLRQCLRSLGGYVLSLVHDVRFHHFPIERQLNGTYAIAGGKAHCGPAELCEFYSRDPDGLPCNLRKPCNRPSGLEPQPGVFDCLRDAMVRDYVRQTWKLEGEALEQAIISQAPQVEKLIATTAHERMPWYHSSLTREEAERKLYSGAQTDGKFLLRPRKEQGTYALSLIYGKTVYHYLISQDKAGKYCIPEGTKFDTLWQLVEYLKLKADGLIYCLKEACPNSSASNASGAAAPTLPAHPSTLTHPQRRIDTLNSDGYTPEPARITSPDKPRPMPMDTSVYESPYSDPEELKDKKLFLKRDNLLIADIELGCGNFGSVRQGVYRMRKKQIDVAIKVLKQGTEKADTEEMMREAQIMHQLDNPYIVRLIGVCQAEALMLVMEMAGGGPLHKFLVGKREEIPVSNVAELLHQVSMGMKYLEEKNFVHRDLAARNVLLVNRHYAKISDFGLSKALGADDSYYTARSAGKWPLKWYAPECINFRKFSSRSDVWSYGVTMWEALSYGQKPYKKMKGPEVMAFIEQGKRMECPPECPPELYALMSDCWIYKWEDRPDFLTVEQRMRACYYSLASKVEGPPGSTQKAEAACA
Method in brief: as §1

[3] = molecular target: T3, Itk (Homo sapiens, UniProt Q08881); test: Kinase inhibition assay (33P transfer), Itk; conditions: Table 3; for IC50: read-out: Itk-1
T3 construct: Kinases are expressed as either kinase domains or full length constructs; made in house
T3 sequence (Q08881 1-620): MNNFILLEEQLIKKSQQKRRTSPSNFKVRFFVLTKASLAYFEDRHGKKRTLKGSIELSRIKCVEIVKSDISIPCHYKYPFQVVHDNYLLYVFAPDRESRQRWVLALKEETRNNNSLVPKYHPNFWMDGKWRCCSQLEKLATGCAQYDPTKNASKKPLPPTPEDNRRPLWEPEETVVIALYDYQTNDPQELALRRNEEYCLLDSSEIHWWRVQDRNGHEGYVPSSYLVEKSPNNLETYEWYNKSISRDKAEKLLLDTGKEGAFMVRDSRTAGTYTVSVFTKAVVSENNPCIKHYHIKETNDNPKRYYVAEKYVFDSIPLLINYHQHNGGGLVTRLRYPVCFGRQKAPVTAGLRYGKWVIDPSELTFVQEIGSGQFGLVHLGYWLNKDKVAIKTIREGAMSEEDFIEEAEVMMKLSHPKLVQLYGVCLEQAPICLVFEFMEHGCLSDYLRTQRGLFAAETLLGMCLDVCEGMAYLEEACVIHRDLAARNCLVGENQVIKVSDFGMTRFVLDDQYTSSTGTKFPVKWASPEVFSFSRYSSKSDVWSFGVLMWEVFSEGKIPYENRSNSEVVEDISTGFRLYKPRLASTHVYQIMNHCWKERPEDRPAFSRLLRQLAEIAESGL
Method in brief: (§2)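 Using immobilised substrate copolymers (poly(Glu,Tyr) 4:1; poly(Arg,Ser) 3:1) and [33P]ATP, purified fusion kinases were allowed to react; plates were then rinsed in 0.5% phosphoric acid and counted in a scintillation detector. Half-maximal inhibition of label transfer defines IC50.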

[4] = molecular target: T4, EGFR (Homo sapiens, UniProt P00533); test: Kinase inhibition assay (33P transfer), EGFR; conditions: Table 2, kinase inhibition class; for IC50: read-out: EGFR-1
T4 construct: Kinases are expressed as either kinase domains or full length constructs; made in house
T4 sequence (P00533 25-1210, species assumed): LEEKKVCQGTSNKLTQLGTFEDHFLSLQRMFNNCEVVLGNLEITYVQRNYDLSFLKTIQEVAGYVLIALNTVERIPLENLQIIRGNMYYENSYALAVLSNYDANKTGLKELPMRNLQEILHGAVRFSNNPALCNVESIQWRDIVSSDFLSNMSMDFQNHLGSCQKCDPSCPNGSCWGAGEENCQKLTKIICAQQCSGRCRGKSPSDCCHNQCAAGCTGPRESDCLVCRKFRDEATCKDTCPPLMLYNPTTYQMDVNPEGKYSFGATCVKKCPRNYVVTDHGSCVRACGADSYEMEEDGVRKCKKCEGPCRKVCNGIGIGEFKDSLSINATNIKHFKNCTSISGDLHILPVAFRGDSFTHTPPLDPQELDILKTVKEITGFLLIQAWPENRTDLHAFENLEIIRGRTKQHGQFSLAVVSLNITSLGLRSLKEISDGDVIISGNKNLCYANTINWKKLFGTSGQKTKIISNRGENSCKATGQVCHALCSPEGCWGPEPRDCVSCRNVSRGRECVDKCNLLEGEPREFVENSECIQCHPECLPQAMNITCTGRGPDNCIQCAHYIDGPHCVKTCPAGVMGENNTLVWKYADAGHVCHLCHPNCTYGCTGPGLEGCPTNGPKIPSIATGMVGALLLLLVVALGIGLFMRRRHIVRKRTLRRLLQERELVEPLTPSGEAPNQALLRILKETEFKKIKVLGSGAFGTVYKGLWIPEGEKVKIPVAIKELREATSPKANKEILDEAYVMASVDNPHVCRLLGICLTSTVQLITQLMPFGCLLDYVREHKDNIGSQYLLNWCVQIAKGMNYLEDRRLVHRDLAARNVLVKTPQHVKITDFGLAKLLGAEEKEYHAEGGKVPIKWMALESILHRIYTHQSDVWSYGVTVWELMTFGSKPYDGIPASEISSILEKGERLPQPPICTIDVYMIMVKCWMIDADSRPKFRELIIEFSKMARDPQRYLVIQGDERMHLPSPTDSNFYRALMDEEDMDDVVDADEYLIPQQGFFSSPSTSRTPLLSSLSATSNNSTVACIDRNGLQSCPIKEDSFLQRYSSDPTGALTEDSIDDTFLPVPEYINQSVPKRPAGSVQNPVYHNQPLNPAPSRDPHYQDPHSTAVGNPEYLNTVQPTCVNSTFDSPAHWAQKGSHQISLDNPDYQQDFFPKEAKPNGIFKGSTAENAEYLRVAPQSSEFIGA
Method in brief: as §2

[5] = molecular target: T5, Kdr (Homo sapiens, UniProt P35968); test: Kinase inhibition assay (33P transfer), Kdr; conditions: Table 3; for IC50: read-out: KDR-1
T5 construct: Kinases are expressed as either kinase domains or full length constructs; made in house
T5 sequence (P35968 20-1356, species assumed): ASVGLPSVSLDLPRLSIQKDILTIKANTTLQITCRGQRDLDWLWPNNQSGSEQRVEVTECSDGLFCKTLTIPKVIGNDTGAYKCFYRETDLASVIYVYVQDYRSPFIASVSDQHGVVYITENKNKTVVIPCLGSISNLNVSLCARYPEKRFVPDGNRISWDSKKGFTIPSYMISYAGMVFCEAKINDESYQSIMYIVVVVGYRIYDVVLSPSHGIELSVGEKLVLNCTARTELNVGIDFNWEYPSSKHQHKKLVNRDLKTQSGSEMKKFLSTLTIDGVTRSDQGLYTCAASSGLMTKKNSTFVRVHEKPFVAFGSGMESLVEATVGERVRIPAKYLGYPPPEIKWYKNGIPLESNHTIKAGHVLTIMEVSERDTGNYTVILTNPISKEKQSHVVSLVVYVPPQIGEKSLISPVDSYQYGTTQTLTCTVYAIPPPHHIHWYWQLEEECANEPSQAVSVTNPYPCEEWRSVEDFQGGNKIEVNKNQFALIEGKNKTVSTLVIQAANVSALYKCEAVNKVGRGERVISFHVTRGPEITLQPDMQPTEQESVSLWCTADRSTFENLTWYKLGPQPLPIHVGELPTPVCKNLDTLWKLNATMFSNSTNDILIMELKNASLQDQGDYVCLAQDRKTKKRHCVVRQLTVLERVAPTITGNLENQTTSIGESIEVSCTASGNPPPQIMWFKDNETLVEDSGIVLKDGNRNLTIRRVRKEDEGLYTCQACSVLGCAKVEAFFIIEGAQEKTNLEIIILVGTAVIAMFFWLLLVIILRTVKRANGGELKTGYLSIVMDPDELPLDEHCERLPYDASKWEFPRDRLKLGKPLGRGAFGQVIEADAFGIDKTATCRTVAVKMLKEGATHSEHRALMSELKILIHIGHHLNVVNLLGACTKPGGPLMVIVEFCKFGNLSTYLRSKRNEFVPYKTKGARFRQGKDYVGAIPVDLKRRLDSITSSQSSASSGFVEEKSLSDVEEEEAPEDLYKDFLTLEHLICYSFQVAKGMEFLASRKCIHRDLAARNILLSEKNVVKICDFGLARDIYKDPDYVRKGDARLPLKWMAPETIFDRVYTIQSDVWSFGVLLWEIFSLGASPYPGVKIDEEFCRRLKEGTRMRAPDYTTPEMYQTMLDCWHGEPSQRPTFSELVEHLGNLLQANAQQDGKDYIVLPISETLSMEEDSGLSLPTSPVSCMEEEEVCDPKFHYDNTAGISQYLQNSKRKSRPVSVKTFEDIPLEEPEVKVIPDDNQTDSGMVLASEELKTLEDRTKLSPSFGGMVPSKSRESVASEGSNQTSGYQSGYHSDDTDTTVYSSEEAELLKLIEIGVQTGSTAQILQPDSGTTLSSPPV
Method in brief: as §1

[6] = molecular target: T6, c-Met (Homo sapiens, UniProt P08581); test: Kinase inhibition assay (33P transfer), c-Met; conditions: Table 2, kinase inhibition class; for IC50: read-out: Met-1
T6 construct: Kinases are expressed as either kinase domains or full length constructs; made in house
T6 sequence (P08581 25-1390): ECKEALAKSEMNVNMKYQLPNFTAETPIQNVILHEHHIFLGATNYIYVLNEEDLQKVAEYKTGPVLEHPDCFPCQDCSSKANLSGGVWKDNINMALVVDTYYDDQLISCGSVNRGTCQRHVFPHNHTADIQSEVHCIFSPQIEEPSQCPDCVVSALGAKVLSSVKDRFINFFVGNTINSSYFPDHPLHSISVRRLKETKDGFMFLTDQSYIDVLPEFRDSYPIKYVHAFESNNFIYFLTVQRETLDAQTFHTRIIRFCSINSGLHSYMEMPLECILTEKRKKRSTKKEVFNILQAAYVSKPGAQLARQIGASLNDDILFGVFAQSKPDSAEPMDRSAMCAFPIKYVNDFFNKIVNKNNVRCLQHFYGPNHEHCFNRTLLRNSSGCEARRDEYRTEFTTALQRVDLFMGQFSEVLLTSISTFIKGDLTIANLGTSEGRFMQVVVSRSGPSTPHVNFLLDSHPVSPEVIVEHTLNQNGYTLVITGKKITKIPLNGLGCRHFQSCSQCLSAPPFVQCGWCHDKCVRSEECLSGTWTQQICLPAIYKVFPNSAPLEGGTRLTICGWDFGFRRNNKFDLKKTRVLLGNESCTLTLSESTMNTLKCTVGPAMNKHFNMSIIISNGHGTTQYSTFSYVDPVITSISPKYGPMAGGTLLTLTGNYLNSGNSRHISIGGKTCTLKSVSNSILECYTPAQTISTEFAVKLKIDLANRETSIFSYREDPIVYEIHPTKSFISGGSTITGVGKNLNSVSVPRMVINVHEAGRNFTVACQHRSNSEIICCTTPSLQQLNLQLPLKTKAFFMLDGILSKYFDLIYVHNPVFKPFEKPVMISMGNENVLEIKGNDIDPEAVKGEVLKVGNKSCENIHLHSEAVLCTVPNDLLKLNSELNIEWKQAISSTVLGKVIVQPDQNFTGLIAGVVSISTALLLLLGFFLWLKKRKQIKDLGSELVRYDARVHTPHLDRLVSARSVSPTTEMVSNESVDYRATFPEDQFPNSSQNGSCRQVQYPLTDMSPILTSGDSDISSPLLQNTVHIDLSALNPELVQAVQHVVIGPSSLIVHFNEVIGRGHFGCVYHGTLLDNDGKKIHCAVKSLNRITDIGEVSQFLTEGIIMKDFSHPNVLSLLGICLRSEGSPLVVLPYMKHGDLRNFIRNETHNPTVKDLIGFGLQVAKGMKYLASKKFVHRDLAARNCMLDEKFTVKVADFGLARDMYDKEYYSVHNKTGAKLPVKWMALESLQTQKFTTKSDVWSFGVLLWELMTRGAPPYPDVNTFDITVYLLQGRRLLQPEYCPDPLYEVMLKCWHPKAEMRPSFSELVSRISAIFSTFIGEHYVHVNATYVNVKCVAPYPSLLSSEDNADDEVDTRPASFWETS
Method in brief: as §2

[7] = molecular target: T7, AKT (Homo sapiens, UniProt Q9Y243); test: Kinase inhibition assay (33P transfer), AKT; conditions: Table 2, kinase inhibition class; for IC50: read-out: AKT3-1
T7 construct: Kinases are expressed as either kinase domains or full length constructs; made in house
T7 sequence (Q9Y243 whole entry, the tested form may be a part): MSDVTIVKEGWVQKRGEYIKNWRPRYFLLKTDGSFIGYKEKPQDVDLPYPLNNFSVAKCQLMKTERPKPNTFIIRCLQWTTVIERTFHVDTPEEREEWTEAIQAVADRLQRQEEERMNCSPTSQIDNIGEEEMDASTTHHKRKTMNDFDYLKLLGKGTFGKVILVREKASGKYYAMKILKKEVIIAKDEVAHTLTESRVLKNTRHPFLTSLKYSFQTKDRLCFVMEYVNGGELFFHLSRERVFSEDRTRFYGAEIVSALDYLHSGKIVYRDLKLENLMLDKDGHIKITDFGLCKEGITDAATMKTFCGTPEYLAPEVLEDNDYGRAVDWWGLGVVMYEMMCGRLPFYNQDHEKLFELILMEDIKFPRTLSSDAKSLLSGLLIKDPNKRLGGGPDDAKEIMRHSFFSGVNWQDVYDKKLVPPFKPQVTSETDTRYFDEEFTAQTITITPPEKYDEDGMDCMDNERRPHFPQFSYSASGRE
Method in brief: as §1

[8] = molecular target: T8, IGFR-1 (Homo sapiens, UniProt P08069); test: Kinase inhibition assay (33P transfer), IGFR-1; conditions: Table 2, kinase inhibition class
T8 construct: Kinases are expressed as either kinase domains or full length constructs; made in house

[9] = molecular target: T9, EPHB4 (Homo sapiens, UniProt P54760); test: Kinase inhibition assay (33P transfer), EPHB4; conditions: for IC50: read-out: EPHB4-1
T9 construct: Kinases are expressed as either kinase domains or full length constructs; made in house
T9 sequence (P54760 16-987): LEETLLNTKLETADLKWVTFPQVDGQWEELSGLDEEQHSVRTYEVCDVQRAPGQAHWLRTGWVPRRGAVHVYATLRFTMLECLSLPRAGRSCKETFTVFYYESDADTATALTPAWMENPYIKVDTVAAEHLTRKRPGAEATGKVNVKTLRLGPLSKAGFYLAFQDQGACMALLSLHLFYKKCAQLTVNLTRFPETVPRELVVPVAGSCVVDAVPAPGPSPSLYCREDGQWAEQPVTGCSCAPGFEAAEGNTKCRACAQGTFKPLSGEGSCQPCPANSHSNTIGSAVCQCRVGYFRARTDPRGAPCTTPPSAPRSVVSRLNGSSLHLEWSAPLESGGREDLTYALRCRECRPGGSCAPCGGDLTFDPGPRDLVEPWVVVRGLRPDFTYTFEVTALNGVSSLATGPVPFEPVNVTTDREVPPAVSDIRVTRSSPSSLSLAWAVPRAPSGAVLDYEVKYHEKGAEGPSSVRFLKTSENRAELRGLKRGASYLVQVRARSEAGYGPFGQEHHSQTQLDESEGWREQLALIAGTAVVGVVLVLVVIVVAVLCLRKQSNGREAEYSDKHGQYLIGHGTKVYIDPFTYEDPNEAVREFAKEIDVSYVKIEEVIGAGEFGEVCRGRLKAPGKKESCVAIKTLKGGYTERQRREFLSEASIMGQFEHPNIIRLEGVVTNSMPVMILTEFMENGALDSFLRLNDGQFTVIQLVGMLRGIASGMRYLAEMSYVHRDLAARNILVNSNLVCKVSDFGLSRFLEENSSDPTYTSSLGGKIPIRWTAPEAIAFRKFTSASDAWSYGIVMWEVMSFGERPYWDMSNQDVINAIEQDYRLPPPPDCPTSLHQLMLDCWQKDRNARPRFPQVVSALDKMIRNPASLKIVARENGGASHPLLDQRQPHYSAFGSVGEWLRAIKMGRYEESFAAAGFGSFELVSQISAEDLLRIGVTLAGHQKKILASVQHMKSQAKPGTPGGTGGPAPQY

T1 sequence (P06239 whole entry, species assumed, the tested form may be a part): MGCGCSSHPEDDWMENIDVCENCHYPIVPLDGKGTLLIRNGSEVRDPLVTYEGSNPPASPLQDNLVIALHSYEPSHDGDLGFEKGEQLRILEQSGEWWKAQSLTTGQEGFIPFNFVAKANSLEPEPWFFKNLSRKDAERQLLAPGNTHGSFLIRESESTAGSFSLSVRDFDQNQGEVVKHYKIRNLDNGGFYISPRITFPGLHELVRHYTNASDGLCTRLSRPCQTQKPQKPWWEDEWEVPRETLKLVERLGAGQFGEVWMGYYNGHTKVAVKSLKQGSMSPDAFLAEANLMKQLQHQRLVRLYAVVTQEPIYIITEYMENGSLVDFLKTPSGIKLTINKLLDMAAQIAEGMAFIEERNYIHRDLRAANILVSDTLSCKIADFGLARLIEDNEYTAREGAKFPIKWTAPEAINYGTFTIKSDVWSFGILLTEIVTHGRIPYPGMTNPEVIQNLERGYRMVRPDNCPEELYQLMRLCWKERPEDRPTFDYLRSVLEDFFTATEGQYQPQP

Row | IC50 [1] | IC50 [2] | IC50 [3] | IC50 [4] | IC50 [5] | IC50 [6] | IC50 [7] | IC50 [8] | IC50 [9] | Compound | Lck-1 [1] | Zap-1 [2] | Itk-1 [3] | EGFR-1 [4] | KDR-1 [5] | Met-1 [6] | AKT3-1 [7] | IGFR-1 [8] | EPHB4-1 [9]
1 |  |  |  |  |  |  |  |  |  | COc1cc(NC(=O)Nc2ncnc(-c3ccncc3)n2)cc(OC)c1OC [Compound 1118] | E (E>4.5 ug/mL) | E (E>4.5 ug/mL) | E (E>4.5 ug/mL) | B (B>0.4 and <2.4 ug/mL) | E (E>4.5 ug/mL) | E (E>4.5 ug/mL) | E (E>4.5 ug/mL) | E (E>4.5 ug/mL) | E (E>4.5 ug/mL)
2 | > 11.3 µM | > 11.3 µM | > 11.3 µM | > 11.3 µM | > 11.3 µM | > 11.3 µM | > 11.3 µM | 8.76 to 11.3 µM | 6 to 8.76 µM | FC(F)C(F)(F)Oc1cccc(Nc2ncnc(-c3ccnc(Cl)c3)n2)c1 [Compound 330] |  |  |  |  |  |  |  |  | 
3 | 8.7 to 11.2 µM | > 11.2 µM | > 11.2 µM | > 11.2 µM | 0.994 to 5.96 µM | 5.96 to 8.7 µM | > 11.2 µM | 5.96 to 8.7 µM | 0.994 to 5.96 µM | COc1cc(Nc2ncnc(-n3cc(C#N)c4ccccc43)n2)cc(OC)c1OC [Compound 332] |  |  |  |  |  |  |  |  | 
